Tested on: Hek293 stable cell lines
Test: Cell proliferation assay (Resazurin based) of Hek293 stable cell lines
Design: species or system human
Conditions: overexpressing stable lines grown 7 days, six independent studies
Method: Hek293 stable cell lines, over-expressing mTORβ wt, mTORα wt or EGFP were seeded into a 96 well plate at various densities (250, 500, 1000 and 2000 cells per well) and grown under standard conditions for 7 days. Cell numbers were than measured in each well by a Resosurin based assay. Normalized growth curves for each cell line were calculated using data from six independent experiments (A). Western blot analysis of total cell lysates of stable cell lines with antibodies to c-myc and its transcription targets (B). The level of proteins was densitometrically measured, actin normalized and folds were calculated against EGFP expressing stable cell line (C).
HEK293 stable cell lines, overexpressing mTORβ wt, mTORβ kinase-dead or EGFP were seeded into 96 well plate at various densities (1000, 2000, 4000 and 8000 cells per well) and grown under standard conditions for 5 days. Cell numbers were then measured in each well by Resazurin based assay. Normalized growth curves for each cell line were calculated using data from six independent experiments (A). Western blot analysis of total cell lysates of stable cell lines with antibodies to c-myc and its transcription targets. The level of proteins was densitometrically measured, actin normalized and folds were calculated against EGFP expressing stable cell line (B). […]

## mTORα wt: full-length mammalian target for rapamycin protein, approximately 2549 amino acids (SEQ ID NO: 4)
  proliferation compared to control (EGFP) cells: no difference in proliferation

— patent US8669347B2, “Truncated variant of the mammalian target for rapamycin (MTOR) protein” (UCL Business PLC, priority 2007, dated 2014)
